# Assay results reported in ChEMBL document CHEMBL1201862, “PubChem BioAssay data set” (2004).
# Active and inactive are the calls of the source.
# Tests used:
# [1] = TNFa-induced NF-kB reporter signal decrease – HEK293 LMP1 reporter cells, dry powder, set 2, selectivity assay for EBV LMP1 NF-kB inhibitor project, dose response (AID 624369); format: functional
# [2] = LMP1-induced NF-kB luciferase signal inhibition – cell-based, EBV LMP1, dry powder, set 2, dose response (AID 624361); format: functional
# [3] = biological target: Histone-lysine N-methyltransferase NSD2 (Homo sapiens, UniProt O96028); format: biochemical
# [4] = biological target: Tyrosyl-DNA phosphodiesterase 2 (Homo sapiens, UniProt O95551); assay: potency against TDP2 phosphodiesterase activity – biochemical, epi absorbance, IC50, dose response (AID 743297)
# [5] = biological target: T1, Methionyl-tRNA synthetase, putative (Trypanosoma brucei brucei, UniProt Q38C91); format: functional, Trypanosoma brucei brucei strain 927/4 GUTat10.1
# T1 sequence (Q38C91 whole entry): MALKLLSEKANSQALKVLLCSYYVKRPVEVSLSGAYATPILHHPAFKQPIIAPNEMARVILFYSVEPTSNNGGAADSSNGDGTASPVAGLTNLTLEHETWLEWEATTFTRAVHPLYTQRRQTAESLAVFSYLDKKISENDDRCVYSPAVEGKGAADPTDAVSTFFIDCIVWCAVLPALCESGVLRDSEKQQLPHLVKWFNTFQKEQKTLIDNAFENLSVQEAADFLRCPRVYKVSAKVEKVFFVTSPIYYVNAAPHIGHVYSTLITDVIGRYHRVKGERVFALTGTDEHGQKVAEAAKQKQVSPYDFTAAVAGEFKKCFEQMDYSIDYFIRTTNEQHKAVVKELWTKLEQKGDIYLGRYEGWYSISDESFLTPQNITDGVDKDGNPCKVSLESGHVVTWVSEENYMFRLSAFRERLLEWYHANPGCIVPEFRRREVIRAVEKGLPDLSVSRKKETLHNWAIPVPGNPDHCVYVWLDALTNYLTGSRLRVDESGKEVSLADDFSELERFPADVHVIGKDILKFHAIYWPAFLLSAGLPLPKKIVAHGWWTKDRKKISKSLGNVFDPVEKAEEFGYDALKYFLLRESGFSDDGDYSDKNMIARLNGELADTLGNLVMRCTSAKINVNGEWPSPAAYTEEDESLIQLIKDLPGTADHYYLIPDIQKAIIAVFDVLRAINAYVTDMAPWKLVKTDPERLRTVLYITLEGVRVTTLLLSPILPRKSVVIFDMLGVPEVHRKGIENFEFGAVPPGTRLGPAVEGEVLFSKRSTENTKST
# [6] = Counterscreen for inhibitors of Trypanosoma brucei methionyl tRNA synthetase (MetRS): Luminescence-based cell-based high throughput dose response assay to identify compounds that are cytotoxic to Jurkat human T lymphocyte cells.; format: functional
# [7] = biological target: T1, Methionyl-tRNA synthetase, putative; format: functional, Trypanosoma brucei brucei strain 927/4 GUTat10.1; remark: listed apart in the source
# [8] = Late stage counterscreen for inhibitors of Trypanosoma brucei methionyl tRNA synthetase (MetRS): Luminescence-based cell-based high throughput dose response assay to identify compounds that are cytotoxic to Jurkat human T lymphocyte cells.; format: functional
# [9] = biological target: Protein Wnt-3a (Mus musculus, UniProt P27467); assay: SAR analysis of small molecule antagonists of Gli-SUFU in a Wnt3a luminescent reporter assay.; format: functional
# [10] = viability loss in HepG2 hepatoma cells – cell-based, cherry-picks, set 5, cytotoxicity control, dose response (AID 1053118); format: functional
# [11] = P. falciparum Dd2 growth inhibitors, dose response, SYBR Green, cherry-picked samples (AID 1159567); format: functional, cell-based
# [12] = toxicity to human hepatoma HepG2 cells – cell-based, cherry-picked samples, cytotoxicity control, dose response (AID 1159577); format: functional
# [13] = biological target: Major prion protein (Homo sapiens, UniProt P04156); format: functional, cell-based
# [14] = cells
# [15] = viability loss in human hepatoma cells – cell-based, CellTiter-Glo luminescence, cherry-pick, set 2, cytotoxicity control, dose response (AID 743395); format: functional
# [16] = biological target: Eukaryotic translation initiation factor 4H (Homo sapiens, UniProt Q15056); assay: eIF4H binding inhibition – biochemical, uHTS, fluorescence polarization, translation initiation inhibitor project, primary screen (AID 2012)
# [17] = biological target: Polyadenylate-binding protein 1 (Homo sapiens, UniProt P11940); assay: blockers of PABP interaction with poly(A) – biochemical, fluorescence polarization, […] (AID 2014)
# [18] = biological target: Nonstructural protein 1 (Influenza A virus, UniProt Q194T2); format: functional, Influenza A virus (A/California/07/2009(H1N1))
# [19] = biological target: Genome polyprotein (dengue virus type 2, UniProt P29990); assay: flavivirus cap methylation enzyme inhibition – biochemical, confirmation dose response, primary screen (AID 588689); format: functional
# [20] = biological target: T2, Protein skinhead-1 (Caenorhabditis elegans, UniProt P34707); format: functional
# T2 sequence (P34707 whole entry): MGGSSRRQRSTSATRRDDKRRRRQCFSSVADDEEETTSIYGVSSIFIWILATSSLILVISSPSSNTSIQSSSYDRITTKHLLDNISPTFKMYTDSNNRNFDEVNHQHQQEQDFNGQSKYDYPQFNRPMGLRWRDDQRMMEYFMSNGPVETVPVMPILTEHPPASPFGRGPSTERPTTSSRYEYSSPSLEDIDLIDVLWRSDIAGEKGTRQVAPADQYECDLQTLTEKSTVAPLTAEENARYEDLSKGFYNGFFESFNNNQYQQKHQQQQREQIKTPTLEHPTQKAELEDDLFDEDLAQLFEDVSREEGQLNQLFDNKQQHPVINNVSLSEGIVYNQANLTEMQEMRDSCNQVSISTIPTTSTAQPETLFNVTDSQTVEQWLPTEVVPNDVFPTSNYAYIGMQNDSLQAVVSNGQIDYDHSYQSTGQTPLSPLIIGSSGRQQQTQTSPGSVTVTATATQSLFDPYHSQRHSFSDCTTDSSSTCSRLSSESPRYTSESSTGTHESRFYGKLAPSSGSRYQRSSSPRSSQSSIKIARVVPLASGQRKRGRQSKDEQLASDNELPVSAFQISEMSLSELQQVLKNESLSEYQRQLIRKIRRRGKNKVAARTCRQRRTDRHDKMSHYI
# [21] = viability loss in HeLa cells – cytotoxicity control for MgcRacGAP inhibitor project, dose response (AID 624300); format: functional
# [22] = biological target: T3, Rac GTPase-activating protein 1 (Homo sapiens, UniProt Q9H0H5); assay: blockers of MgcRacGAP-driven Rac1 GTP hydrolysis – biochemical, ADP Hunter fluorescence, primary and confirmatory, confirmation (AID 624330); format: functional
# T3 sequence (Q9H0H5 whole entry): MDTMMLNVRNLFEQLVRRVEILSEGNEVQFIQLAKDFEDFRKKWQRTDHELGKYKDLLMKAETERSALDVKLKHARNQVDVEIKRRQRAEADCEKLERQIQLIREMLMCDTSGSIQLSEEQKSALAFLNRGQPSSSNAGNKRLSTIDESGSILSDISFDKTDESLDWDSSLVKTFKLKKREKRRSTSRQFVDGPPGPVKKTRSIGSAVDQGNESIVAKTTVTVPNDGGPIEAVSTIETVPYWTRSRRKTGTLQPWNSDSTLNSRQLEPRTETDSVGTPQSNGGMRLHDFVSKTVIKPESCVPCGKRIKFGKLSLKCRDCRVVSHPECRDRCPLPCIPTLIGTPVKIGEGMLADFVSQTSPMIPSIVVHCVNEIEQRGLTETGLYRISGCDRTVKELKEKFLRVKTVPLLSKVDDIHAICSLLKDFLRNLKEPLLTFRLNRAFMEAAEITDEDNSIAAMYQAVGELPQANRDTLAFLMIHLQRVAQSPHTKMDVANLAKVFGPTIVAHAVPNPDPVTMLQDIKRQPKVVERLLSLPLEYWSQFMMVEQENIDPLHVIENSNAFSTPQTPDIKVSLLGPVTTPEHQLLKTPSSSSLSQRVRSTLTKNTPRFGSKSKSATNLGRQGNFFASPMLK
# [23] = biological target: Matrix metalloproteinase-14 (Homo sapiens, UniProt P50281); assay: Dose Response confirmation of uHTS hits for a small molecule inhibitors of MT1-MMP activation in a fluorescence assay set 1.; format: functional
# [24] = viability loss in HEK293 kidney cells – cell-based, cherry-picks, set 5, cytotoxicity control, dose response (AID 1053117); format: functional
# [25] = blockers of FN fibrillogenesis by fibroblasts – AH1F cells, Alexa488-FN fluorescence, cherry-picks, dose response (AID 1035475); format: functional, cell-based
# [26] = activation of miR-122 Renilla sensor silencing – cell-based, Huh7 psiCHECK-miR122, Renilla luciferase, cherry-picked, dose response (AID 651956); format: functional;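 note: huh7 hepatoma cells stably carrying a psiCHECK-2 miR-122 sensor plasmid; renilla luciferase signal reporting endogenous miR-122 activity after 48 h compound exposure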
# [27] = general mammalian cell viability loss – activator set, cherry-pick, cytotoxicity control for miR-122 modulator project, dose response (AID 720690); format: functional, cell-based;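 note: HEK293T human cells scored for general mammalian cytotoxicity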
# [28] = biological target: Paired box protein Pax-8 (Homo sapiens, UniProt Q06710); assay: PAX8 transcriptional activity inhibition in RMG-I – RMG-I cells, luciferase, cherry-pick, dose response (AID 687027); format: functional, cell-based;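 note: luciferase reporter driven by Pax8 target thyroperoxidase promoter measured by SteadyGlo luminescence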
# [29] = toxicity toward immortalized ovarian surface epithelium – cell-based, plate reader, dry powder samples, cytotoxicity control for PAX8 inhibitor project, dose response (AID 743045); format: functional
# [30] = reduced cellular PGC1a acetyl-lysine signal – cell-based, cherry-picked samples, dose response (AID 720514); format: functional;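 note: potency may reflect raised or lowered acetylation signal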
# [31] = OVCAR-3 cell viability loss – plate reader, dry powder samples, PAX8 inhibitor project, dose response (AID 743044); format: functional, cell-based
# [32] = IGROV1 cell killing – plate reader, dry powder samples, PAX8 inhibitor project, dose response (AID 743043); format: functional, cell-based; conditions: IGROV-1
# [33] = general cell-killing toxicity readout – plate reader, dry powder samples, cytotoxicity control for PAX8 inhibitor project, dose response (AID 743021); format: functional, cell-based
# [34] = OVCAR8 cell viability loss – plate reader, dry powder samples, PAX8 project, dose response (AID 743197); format: functional, cell-based; conditions: OVCAR-8
# [35] = system: A549; assay: viability loss in A549 cells – cell-based, plate reader, cherry-pick samples, cytotoxicity control, dose response (AID 687028); format: functional; conditions: Homo sapiens
# [36] = general mammalian cell viability loss – inhibitor set, cherry-pick, set 2, cytotoxicity control for miR-122 modulator project, dose response (AID 720697); format: functional, cell-based
# [37] = system: HeLa; assay: viability loss in HeLa cells – cell-based, ATP luminescence, cherry-pick samples, cytotoxicity control, dose response (AID 687004); format: functional; conditions: Homo sapiens
# [38] = system: HEK293; assay: viability loss in HEK293T cells – cell-based, ATP luminescence, cherry-pick samples, cytotoxicity control, dose response (AID 687005); format: functional; conditions: Homo sapiens;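 note: cells exposed to compound for 48 hours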
# [39] = HEK293 Cytotoxicity Assay Measured in Cell-Based System Using Plate Reader - 7071-01_Inhibitor_Dose_CherryPick_Activity_Set2.; format: functional
compound,measurement,setting,value
Cc1cc(C(=O)Nc2ccc3c(c2)C(=O)N(C)[C@H]2CC[C@H](CC(=O)NCc4ccc(-c5ccccc5)cc4)O[C@H]2CO3)no1,AbsAC35,[1],62.14 µM
same,AbsAC35,[2],37.95 µM
O=C1C=C(O)c2nc(O)ccc2C1=O,AC50,[3],13.1 µM (active)
same,IC50,[4],80 µM (inactive)
O=C(NCc1nc2ccccc2[nH]1)C1=C[C@@H](c2ccccc2)C[C@@H](OCc2ccc(CO)cc2)O1,IC50,[5],2.08 µM (active)
same,IC50,[6],81 µM (inactive)
same,IC50,[7],0.835 µM (active)
same,IC50,[8],> 83.3 µM (inactive)
CN(C)c1cc(NC(=O)c2ccccc2F)ncn1,IC50,[9],> 21.8 µM (inactive)
CO[C@@H]1CN(C)C(=O)c2ccc(NC(=O)c3ccc(-c4ccccc4)cc3)cc2OC[C@@H](C)NC[C@@H]1C,AC50,[10],> 52 µM (inactive)
same,AC50,[11],3.9 µM (active)
same,AC50,[12],11.9 µM (active)
Fc1cccc2sc(Nc3nc4c(F)cccc4s3)nc12,IC50,[13],8.31 µM (active)
same,IC50,[14],> 138 µM (inactive)
COc1cc(NC(=O)c2csc(N)n2)cc(C(=O)Nc2cccc(C(F)(F)F)c2)c1.O=C(O)C(F)(F)F,AbsAC35_uM,[15],51.31 µM
CC1=C/C(=C(/c2cc(C)c(O)c(Br)c2)c2ccccc2S(=O)(=O)O)C=C(Br)C1=O,IC50,[16],8.28 µM (active)
same,IC50,[17],6.81 µM (active)
same,IC50,[18],16.3 µM (active)
same,IC50,[19],38 µM (active)
same,IC50,[20],34.3 µM (active)
same,CC50,[21],100 µM (active)
same,IC50,[22],63.5 µM (active)
same,IC50,[23],18.5 µM (active)
CN1c2ccc(-c3ccccc3)cc2[C@H]2[C@H](CCN2C(=O)CN2CCOCC2)[C@@H]1CO,AC50,[24],> 52 µM (inactive)
same,AC50,[25],> 70 µM (inactive)
CCC(=O)N(C)C[C@H]1Oc2cc(C#Cc3ccccc3)ccc2S(=O)(=O)N([C@H](C)CO)C[C@H]1C,AC50,[26],10.1 µM (active)
same,AC50,[27],30.6 µM (active)
Cc1cccc(-c2ccc([C@H]3[C@@H]4CN(C(=O)Nc5ccc(C(F)(F)F)cc5)C[C@H]3N4)cc2)c1,AC50,[28],8.8 µM (active)
same,AC50,[29],17 µM (active)
same,AC50,[30],4.51 µM (active)
same,AC50,[31],18.8 µM (active)
same,AC50,[32],33.2 µM (active)
same,AC50,[33],22.9 µM (active)
same,AC50,[34],25.6 µM (active)
same,AC50,[11],3.28 µM (active)
same,AC50,[12],9.26 µM (active)
C[C@H](CO)N1C[C@H](C)[C@@H](CN(C)C(=O)Nc2ccc(C(F)(F)F)cc2)OCCCC[C@H](C)Oc2ccc(NC(=O)C3CCCCC3)cc2C1=O,AC50,[35],30.5 µM (active)
CN(C)C(=O)C[C@@H]1CC[C@@H]2[C@@H](COc3ccc(NC(=O)C4CC4)cc3C(=O)N2C)O1,AC50,[36],9.22 µM (active)
C[C@@H]1CN([C@@H](C)CO)S(=O)(=O)c2ccc(-c3ccccc3)cc2O[C@H]1CN(C)C(=O)C1CCCCC1,AC50,[37],> 52 µM (inactive)
same,AC50,[38],15.4 µM (active)
same,AC50,[39],15.4 µM (active)
